Experimental data: patent US6569870B1, “Fluorinated quinolones as antimitotic and antitumor agents” (The University of North Carolina at Chapel Hill, priority 2000, dated 2003)
Read-outs that look alike come from different tables or passages of the source.

Legend:
[1] = system: T1, tubulin; conditions: data from literature (Kuo 1993; Hamel 1996; Xia 1998); read-out: ITP IC50 ± SD; cited from earlier work
T1 construct: ITP IC50 ± SD; other: 10 μM tubulin; ICB (% inhib ± SD); effect on tubulin polymerization; other: relative to combretastatin A-4; Ha

[2] = system: K-562, leukemia cell line; assay: NCI 60 human tumor cell line (HTCL) in vitro screen, K562; assay type: cell-based; conditions: log concentration that reduced cell growth by 50%, read-out: Cytotoxicity log GI50, K562 (converted)
Text: (§1) This assay involves determination of a test agent's effect on growth parameters against a panel of approximately 60 human tumor cell lines, mostly derived from solid tumors.

[3] = system: NCI-H226, non-small cell lung cancer cell line; assay: NCI HTCL in vitro screen, NCI-H226; assay type: cell-based, human; conditions: for GI50: Homo sapiens, NCI-H226, log concentration that reduced cell growth by 50%, read-out: Cytotoxicity log GI50, NCI-H226 (converted)
Text: as §1

[4] = system: HCT-116, colon cancer cell line; assay: NCI HTCL in vitro screen, HCT116; assay type: cell-based, human; conditions: for GI50: Homo sapiens, HCT-116, log concentration that reduced cell growth by 50%, read-out: Cytotoxicity log GI50, HCT116 (converted)
Text: as §1

[5] = system: RXF-393, renal cancer cell line; assay: NCI HTCL in vitro screen, RXF-393; assay type: cell-based, human; conditions: log concentration that reduced cell growth by 50%; for GI50: Homo sapiens, RXF 393, read-out: Cytotoxicity log GI50, RXF-393 (converted)
Text: as §1

[6] = system: SK-Me15, melanoma; assay: NCI HTCL in vitro screen, SK-Me15; assay type: cell-based, human; conditions: log concentration that reduced cell growth by 50%; for GI50: Homo sapiens, read-out: Cytotoxicity log GI50, SK-Me15 (converted)
Text: as §1

[7] = system: SF-268 CNS tumor cell line; assay: NCI HTCL in vitro screen, SF-268; assay type: cell-based; conditions: Homo sapiens, log concentration that reduced cell growth by 50%, read-out: Cytotoxicity log GI50, SF-268 (converted)
Text: as §1

[8] = system: SF-295 CNS tumor cell line; assay: NCI HTCL in vitro screen, SF-295; assay type: cell-based, human; conditions: for GI50: Homo sapiens, SF-295, log concentration that reduced cell growth by 50%, read-out: Cytotoxicity log GI50, SF-295 (converted)
Text: as §1

[9] = system: panel of approximately 60 human tumor cell lines; assay: NCI HTCL in vitro screen, mean over all cell lines; assay type: cell-based; conditions: mean over all 60 cell lines; for GI50: Homo sapiens, read-out: Mean log GI50 (converted)
Procedure: Compounds 1-7 and 13 were tested in National Cancer Institute's HTCL screen (M. Grever et al., Seminars Oncol. 1992, 19, 622-638; A. Monks et al., J. Natl. Cancer Inst. 1991, 83, 757-766). This assay involves determination of a test agent's effect on growth parameters against a panel of approximately 60 human tumor cell lines, mostly derived from solid tumors.

[10] = system: T1, tubulin; assay: Inhibition of tubulin polymerization (ITP); assay type: biochemical; conditions: for IC50: 10 μM tubulin, read-out: ITP IC50 ± SD
[11] = system: OVCAR-3, ovarian cancer cell line; assay: NCI HTCL in vitro screen, OVCAR-3; assay type: cell-based, human; conditions: for GI50: Homo sapiens, OVCAR-3, log concentration that reduced cell growth by 50%, read-out: Cytotoxicity log GI50, OVCAR-3 (converted)
Text: as §1

[12] = system: T1, tubulin; assay: Inhibition of [3H]colchicine binding to tubulin (ICB); conditions: for ICB (% inhib ± SD): 5 μM [3H]colchicine, 1 μM tubulin
[13] = system: panel of approximately 60 human tumor cell lines; conditions: previously reported (L. Li et al. 1994); cited from earlier work
[14] = system: tubulin; conditions: previously reported (background); read-out: inhibition of tubulin polymerization IC50; cited from earlier work
[15] = system: OVCAR-3 ovarian cell line; conditions: mice bearing OVCAR-3 tumor; previously reported (background); cited from earlier work

IC50 [10] | melting point | Compound | GI50 [2] | GI50 [3] | GI50 [4] | GI50 [5] | GI50 [6] | GI50 [7] | GI50 [8] | GI50 [9] | GI50 [11] | other results
 |  | O=c1[nH]c(C=Cc2ccccc2)nc2ccccc12 [Compound 18, 2-styrylquinazolin-4(3H)-one] |  |  |  |  |  |  |  |  |  | IC50 [1]: 5 ± 0.6 µM
> 40 µM | 119 to 120 °C | CCOC(=O)COc1cc(-c2ccccc2F)nc2cc3c(cc12)OCO3 [Compound 2, 2′-Fluoro-6,7-(methylenedioxy)-2-phenyl-4-(O-ethylacetate)quinoline] | 38 µM | > 100 µM | 72.4 µM | > 100 µM | 72.4 µM | > 100 µM | > 100 µM | 79.4 µM |  | 
0.68 ± 0.02 µM |  | O=c1cc(-c2ccccc2F)[nH]c2cc3c(cc12)OCO3 [Compound 1, 2′-Fluoro-6,7-(methylenedioxy)-2-phenyl-4-quinolone] |  | 0.447 µM | 0.0603 µM |  | 0.0209 µM | 2.29 µM | 0.055 µM | 0.135 µM | 81.3 nM | ICB (% inhib ± SD) ([12]; 5 μM inhibitor): 39 ± 2 % inhib; average log G150 value in the HTCL screen [13]: −6.47; IC50 [14]: 850 nM; prolonging the life span of mice bearing the tumor [15]: 130%
3.2 ± 1 µM |  | CC(C)(C)OC(=O)n1c(-c2ccccc2F)cc(=O)c2cc3c(cc21)OCO3 [Compound 7, N-Boc-2′-fluoro-6,7-(methylenedioxy)-2-phenyl-4-quinolone] | > 100 µM | 0.0251 µM | 0.0447 µM | > 100 µM |  |  | 0.117 µM | 0.589 µM | 32.4 nM | fold more active than 1 against NCI-H226 ([3]; relative to compound 1): ~20 fold; cytotoxicity relative to 1, HCT-116 ([4]; relative to compound 1): equipotent with 1; cytotoxicity relative to 1, OVCAR-3 ([11]; relative to compound 1): equipotent with 1; cytotoxicity relative to 1, SF-295 ([8]; relative to compound 1): less active than 1; effect on tubulin polymerization [10]: moderate activity
0.46 µM |  | Oc1cc(-c2ccccc2F)nc2ccc(N3CCCC3)cc12 [Compound 13] | 0.0324 µM |  |  | < 0.01 µM | < 0.01 µM | 0.0389 µM |  |  |  | Cytotoxicity log GI50, RXF-393 [5]: <−8.00 M; Cytotoxicity log GI50, SK-Me15 [6]: <−8.00 M; Mean log GI50 [9]: −7.62 M; ICB (% inhib ± SD) ([12]; 1 μM inhibitor): 76 ± 5 % inhib; ICB (% inhib ± SD) ([12]; 5 μM inhibitor): 93 ± 1 % inhib; inhibition of [3H]colchicine binding to tubulin ([12]; relative to combretastatin A-4): nearly as active as the highly potent combretastatin A-4
> 40 µM | 93 to 94 °C | CCOC(=O)CCCOc1cc(-c2ccccc2F)nc2cc3c(cc12)OCO3 [Compound 4, 2′-Fluoro-6,7-(methylenedioxy)-2-phenyl-4-(O-ethyl 4′-butyrate)quinoline] |  |  | > 100 µM |  | 57.5 µM | > 100 µM |  | 47.9 µM |  | 
> 20 µM | > 300 °C | O=C(O)COc1cc(-c2ccccc2F)nc2cc3c(cc12)OCO3 [Compound 3, 2′-Fluoro-6,7-(methylenedioxy)-2-phenyl-4-(O-acetic acid)quinoline] | > 100 µM | > 100 µM | > 100 µM | > 100 µM | > 100 µM | > 100 µM | > 100 µM | > 100 µM | > 100000 nM | 
12 ± 3 µM | > 300 °C | O=C(O)CCCOc1cc(-c2ccccc2F)nc2cc3c(cc12)OCO3 [Compound 5, 2′-Fluoro-6,7-(methylenedioxy)-2-phenyl-4-(O-ethyl 4′-butylacetic acid)quinoline] |  |  |  |  |  |  |  | 4.68 µM |  | 
 |  | Fc1ccccc1-c1cc(=S)c2cc3c(cc2[nH]1)OCO3 [Compound 6, 2′-Fluoro-6,7-(methylenedioxy)-2-phenylquino-4-thione] | 56.2 µM | 16.6 µM | 5.5 µM | 29.5 µM | 4.07 µM | 20 µM | 11.7 µM | 15.5 µM | 21400 nM | 
